Experimental findings from ChEMBL document CHEMBL1148873, “Carbonic anhydrase inhibitors: the beta-carbonic anhydrase from Helicobacter pylori is a new target for sulfonamide and sulfamate inhibitors” (Bioorg Med Chem Lett, 2007) are described below.

In assay [1] the test system is Helicobacter pylori.
Description: Inhibition of Helicobacter pylori beta carbonic anhydrase by stopped-flow CO2 hydrase assay
In assay [2] the test system is Helicobacter pylori. This is another data set of the same source.
Description: Inhibition of Helicobacter pylori alpha carbonic anhydrase by stopped-flow CO2 hydrase assay
In assay [3] the target is Carbonic anhydrase 1 (Homo sapiens) (UniProt P00915).
Description: Inhibition of human carbonic anhydrase 1 by stopped-flow CO2 hydrase assay
Assay [4] has as its target Carbonic anhydrase 2 (Homo sapiens) (UniProt P00918).
Description: Inhibition of human carbonic anhydrase 2 by stopped-flow CO2 hydrase assay

Chain of Carbonic anhydrase 1 (Homo sapiens) (P00915 2-261 limits assumed): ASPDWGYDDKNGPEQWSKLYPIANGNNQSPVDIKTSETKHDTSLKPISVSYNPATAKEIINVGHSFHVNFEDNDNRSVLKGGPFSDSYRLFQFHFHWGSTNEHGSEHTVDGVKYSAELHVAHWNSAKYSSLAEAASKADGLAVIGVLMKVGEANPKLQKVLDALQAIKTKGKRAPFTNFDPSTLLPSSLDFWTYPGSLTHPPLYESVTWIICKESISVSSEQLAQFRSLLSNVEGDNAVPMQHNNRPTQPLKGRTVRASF

`CC(C)(C)c1ccc(C(=O)Nc2ccccc2S(N)(=O)=O)cc1`: the Kinact turned out to be 23500 nM in the assay with Helicobacter pylori [1], 539 nM in the assay with Helicobacter pylori [2] and 12.3 µM in assay [3].

Turning to `CC(C)(C)c1ccc(C(=O)NCc2ccc(S(N)(=O)=O)cc2)cc1`, the Kinact in the assay on Helicobacter pylori [1] is 101 nM; in the assay on Helicobacter pylori [2], 539 nM; in assay [3], 12.3 µM; in assay [4] it was 241 nM.

Regarding `CC(C)(C)c1ccc(S(=O)(=O)NCc2ccc(S(N)(=O)=O)cc2)cc1`, the Kinact in the assay with Helicobacter pylori [1] stood at 96 nM; with Helicobacter pylori [2] it was 31 nM; in assay [3] it was 12.2 µM; in assay [4], 104 nM.

Take `NNc1ccc(S(N)(=O)=O)cc1`: the Kinact in the assay on Helicobacter pylori [1] was found to be 8650 nM; in assay [3], 28 µM.

As for `Nc1ccccc1S(N)(=O)=O`, the Kinact in the assay with Helicobacter pylori [1] amounted to 16400 nM; with Helicobacter pylori [2], 426 nM.

In the case of `Cn1nc(S(N)(=O)=O)sc1=N`, the values for the Kinact in the assay on Helicobacter pylori [1] and with Helicobacter pylori [2] were 768 nM and 549 nM, respectively.

In the case of `CC(C)(C)c1ccc(C(=O)Nc2cccc(S(N)(=O)=O)c2)cc1`, the Kinact with Helicobacter pylori [1] came out at 241 nM; in the assay with Helicobacter pylori [2], 316 nM; in assay [3], 10.8 µM.

`CC(C)(C)c1ccc(S(=O)(=O)Nc2ccccc2S(N)(=O)=O)cc1`: the Kinact was determined as 24800 nM in the assay on Helicobacter pylori [1], 640 nM in the assay on Helicobacter pylori [2], 14.7 µM in assay [3] and 295 nM in assay [4].

For `Cc1ccc(S(N)(=O)=O)cc1`, the figures for the Kinact (in the assay on Helicobacter pylori [1]; in the assay with Helicobacter pylori [2]; in assay [3]) were 2470 nM, 430 nM and 78.5 µM, respectively.

As to `Nc1ccc(S(N)(=O)=O)cc1I`, the Kinact in the assay with Helicobacter pylori [1] worked out at 1150 nM; in the assay on Helicobacter pylori [2], 510 nM; in assay [3] it was 6 µM.

Regarding `NS(=O)(=O)c1ccc(CO)cc1`, the values for the Kinact in the assay with Helicobacter pylori [1] and in the assay with Helicobacter pylori [2] were 236 nM and 876 nM, respectively.

As for `CC(C)(C)c1ccc(S(=O)(=O)NCCc2ccc(S(N)(=O)=O)cc2)cc1`, the Kinact in the assay with Helicobacter pylori [1] stood at 45 nM; in the assay with Helicobacter pylori [2], 27 nM; in assay [3], 12 µM; in assay [4] it was 94 nM.

On to `Nc1ccc(S(=O)(=O)NCc2ccc(S(N)(=O)=O)cc2)cc1`, for which the Kinact with Helicobacter pylori [1] was 87 nM; in the assay with Helicobacter pylori [2], 131 nM.

As for `CCN[C@H]1CN(CCCOC)S(=O)(=O)c2sc(S(N)(=O)=O)cc21`, the values for the Kinact in the assay with Helicobacter pylori [1] and with Helicobacter pylori [2] were 128 nM and 210 nM, respectively.

On to `CC(=O)/N=c1/sc(S(N)(=O)=O)nn1C`, for which the Kinact in the assay with Helicobacter pylori [1] was 176 nM; in the assay on Helicobacter pylori [2] it was 225 nM.

`CC(C)(C)c1ccc(C(=O)Nc2ccc(S(N)(=O)=O)cc2)cc1`: the results for the Kinact (with Helicobacter pylori [1]; in the assay on Helicobacter pylori [2]; in assay [3]) were 158 nM, 79 nM and 14.2 µM, respectively.

Consider `CC(C)(C)c1ccc(S(=O)(=O)Nc2nnc(S(N)(=O)=O)s2)cc1`, for which the Kinact in the assay with Helicobacter pylori [1] came to 24 nM; in the assay on Helicobacter pylori [2] it was 12 nM; in assay [3], 0.338 µM.

With `CC(C)(C)c1ccc(C(=O)Nc2nnc(S(N)(=O)=O)s2)cc1`, the Kinact is 28 nM with Helicobacter pylori [1], 13 nM in the assay on Helicobacter pylori [2] and 0.541 µM in assay [3].

As for `Nc1ccc(S(N)(=O)=O)cc1F`, the Kinact was found to be 1360 nM in the assay with Helicobacter pylori [1] and 1230 nM in the assay on Helicobacter pylori [2].

As to `Nc1ccc(S(=O)(=O)Nc2nnc(S(N)(=O)=O)s2)cc1`, the figures for the Kinact in the assay with Helicobacter pylori [1] and with Helicobacter pylori [2] were 64 nM and 268 nM, respectively.

Turning to `NCc1ccc(S(N)(=O)=O)cc1`, the Kinact in the assay on Helicobacter pylori [1] came to 2360 nM; with Helicobacter pylori [2] it was 873 nM.

`CC(C)(C)c1ccc(S(=O)(=O)Nc2ccc(S(N)(=O)=O)cc2)cc1`: the Kinact worked out at 150 nM in the assay on Helicobacter pylori [1], 60 nM in the assay with Helicobacter pylori [2] and 13 µM in assay [3].

`NS(=O)(=O)c1ccc(C(=O)O)cc1`: the values for the Kinact in the assay on Helicobacter pylori [1] and in the assay on Helicobacter pylori [2] were 450 nM and 1050 nM, respectively.

`Nc1nccc(Nc2ccc(S(N)(=O)=O)cc2)n1`: the figures for the Kinact in the assay with Helicobacter pylori [1] and with Helicobacter pylori [2] were 38 nM and 84 nM, respectively.

On to `Nc1ccc(S(N)(=O)=O)cc1Cl`, for which the figures for the Kinact with Helicobacter pylori [1] and in the assay on Helicobacter pylori [2] were 1460 nM and 378 nM, respectively.

For the compound `CC(C)(C)c1ccc(S(=O)(=O)Nc2cccc(S(N)(=O)=O)c2)cc1`, the Kinact in the assay with Helicobacter pylori [1] came to 213 nM; in the assay on Helicobacter pylori [2], 318 nM; in assay [3], 9.62 µM.

`Nc1ccc(S(N)(=O)=O)cc1Br`: the figures for the Kinact with Helicobacter pylori [1] and with Helicobacter pylori [2] were 1240 nM and 452 nM, respectively.

Turning to `NS(=O)(=O)c1nnc(-c2ccccc2Cl)s1`, the Kinact came to 37 nM with Helicobacter pylori [1] and 0.69 µM in assay [3].

For the compound `Nc1ccc(S(=O)(=O)NCCc2ccc(S(N)(=O)=O)cc2)cc1`, the Kinact stood at 71 nM in the assay on Helicobacter pylori [1] and 114 nM in the assay with Helicobacter pylori [2].

Regarding `CC(C)(C)c1ccc(C(=O)NCCc2ccc(S(N)(=O)=O)cc2)cc1`, the Kinact was 44 nM in the assay with Helicobacter pylori [1], 62 nM in the assay with Helicobacter pylori [2], 13.3 µM in assay [3] and 127 nM in assay [4].
